# Data from PubChem BioAssay AID830 (PCMD, 2007).
# pIC50: −log10 of the molar value. Results filed as inconclusive are left out.
# Target: Cathepsin B (Homo sapiens) (UniProt P07858)
# Experiment: CTSB inhibitor potency, concentration-effect curve, cell-free enzymatic assay, actives from pooled-compound high-throughput screen (AID 830)
# Conditions: purified cathepsin B enzyme activity, signal read-out
row,Compound,pIC50
1,Cc1ccc(S(=O)(=O)n2nc(OC(=O)c3ccco3)cc2N)cc1,5.76
2,Nc1cc(OC(=O)c2cccs2)nn1S(=O)(=O)c1ccccc1,6.61
3,Nc1cc(OC(=O)c2ccco2)nn1S(=O)(=O)c1ccc(F)cc1,5.90
4,O=S(=O)(/N=S1/CC=CCN1S(=O)(=O)c1ccccc1)c1ccccc1 (stereo unspecified),5.03
5,Cc1ccc(S(=O)(=O)n2nc(OC(=O)c3cccs3)cc2N)cc1,5.70
6,Nc1nc2n(n1)C1(CCCCC1)C1=C(CCCC1)N2,4.89
